The values that follow come from ChEMBL document CHEMBL5291721, “A preclinical secondary pharmacology resource illuminates target-adverse drug reaction associations of marketed drugs” (Nat Commun, 2023).

SMILES strings stand for the structures.

Test [1] has as its target T1, Alpha-1A adrenergic receptor (Homo sapiens, UniProt P35348).
T1 sequence (P35348 whole entry): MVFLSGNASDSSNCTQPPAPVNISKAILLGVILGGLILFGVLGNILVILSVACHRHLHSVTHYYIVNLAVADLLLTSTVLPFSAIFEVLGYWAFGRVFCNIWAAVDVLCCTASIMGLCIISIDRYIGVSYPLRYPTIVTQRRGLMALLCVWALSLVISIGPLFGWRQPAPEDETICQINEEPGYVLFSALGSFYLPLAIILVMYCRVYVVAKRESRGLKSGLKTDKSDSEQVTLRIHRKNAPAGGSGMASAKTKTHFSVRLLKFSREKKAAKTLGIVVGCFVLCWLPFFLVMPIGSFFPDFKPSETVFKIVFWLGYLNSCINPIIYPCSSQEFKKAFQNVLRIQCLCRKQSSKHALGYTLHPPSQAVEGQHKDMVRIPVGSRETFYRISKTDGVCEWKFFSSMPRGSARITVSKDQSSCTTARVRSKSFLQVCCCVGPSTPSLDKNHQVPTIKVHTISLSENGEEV
It counts as functional, cell-based.

Test [2] has as its target T2, 5-hydroxytryptamine receptor 3A (Homo sapiens, UniProt P46098).
T2 sequence (P46098 whole entry): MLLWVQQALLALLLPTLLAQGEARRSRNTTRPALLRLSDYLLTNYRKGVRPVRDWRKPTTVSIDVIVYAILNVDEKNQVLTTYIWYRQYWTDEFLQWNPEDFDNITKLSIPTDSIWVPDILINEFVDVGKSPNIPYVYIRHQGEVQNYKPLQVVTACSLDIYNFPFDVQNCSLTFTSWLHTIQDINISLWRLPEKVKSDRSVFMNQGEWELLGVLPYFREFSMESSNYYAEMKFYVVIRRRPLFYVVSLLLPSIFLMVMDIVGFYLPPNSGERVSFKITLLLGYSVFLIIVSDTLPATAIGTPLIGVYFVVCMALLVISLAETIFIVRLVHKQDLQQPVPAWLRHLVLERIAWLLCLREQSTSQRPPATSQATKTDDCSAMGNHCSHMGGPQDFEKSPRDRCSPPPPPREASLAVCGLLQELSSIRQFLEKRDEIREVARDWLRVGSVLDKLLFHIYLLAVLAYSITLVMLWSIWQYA
It is filed as functional.

Another test has as its target Motilin receptor (Homo sapiens, UniProt O43193).
Test [3] has as its target T1, Alpha-1A adrenergic receptor. It counts as functional, cell-based. The source holds these as a separate data set.
The target of test [4] is Voltage-gated inwardly rectifying potassium channel KCNH2 (Homo sapiens, UniProt Q12809). It is filed as functional. The settings on record: read-out: AC50.
Test [5] addresses Kappa-type opioid receptor (Homo sapiens, UniProt P41145).
A further test concerns the target T3, Adenosine receptor A3 (Homo sapiens, UniProt P0DMS8).
T3 sequence (P0DMS8 whole entry): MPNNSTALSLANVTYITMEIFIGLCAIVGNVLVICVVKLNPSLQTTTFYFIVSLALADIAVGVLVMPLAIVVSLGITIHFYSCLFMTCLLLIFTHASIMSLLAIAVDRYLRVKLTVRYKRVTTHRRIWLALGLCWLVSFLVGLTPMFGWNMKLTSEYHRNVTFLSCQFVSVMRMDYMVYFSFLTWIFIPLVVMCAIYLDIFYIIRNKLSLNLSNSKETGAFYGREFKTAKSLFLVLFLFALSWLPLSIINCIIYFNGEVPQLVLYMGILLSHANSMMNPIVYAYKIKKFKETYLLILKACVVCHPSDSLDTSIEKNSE

The target in test [6] is Gamma-aminobutyric acid receptor subunit alpha-1 (Rattus norvegicus, UniProt P62813). It counts as functional.
Test [7] concerns the target T4, 5-hydroxytryptamine receptor 1A (Homo sapiens, UniProt P08908).
T4 sequence (P08908 whole entry): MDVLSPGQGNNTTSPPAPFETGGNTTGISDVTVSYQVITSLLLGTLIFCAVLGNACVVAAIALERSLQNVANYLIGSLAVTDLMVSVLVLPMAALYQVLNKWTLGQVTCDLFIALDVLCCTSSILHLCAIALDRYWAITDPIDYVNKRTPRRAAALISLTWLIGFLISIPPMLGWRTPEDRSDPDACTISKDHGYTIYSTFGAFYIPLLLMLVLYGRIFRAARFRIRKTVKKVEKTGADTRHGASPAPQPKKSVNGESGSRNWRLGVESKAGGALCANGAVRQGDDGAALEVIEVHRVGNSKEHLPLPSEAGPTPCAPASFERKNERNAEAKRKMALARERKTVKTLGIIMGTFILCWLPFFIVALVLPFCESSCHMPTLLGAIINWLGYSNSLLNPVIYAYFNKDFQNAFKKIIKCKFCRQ
It is filed as functional, cell-based.

For test [8], the target named is T5, Alpha-2A adrenergic receptor (Homo sapiens, UniProt P08913).
T5 sequence (P08913 whole entry): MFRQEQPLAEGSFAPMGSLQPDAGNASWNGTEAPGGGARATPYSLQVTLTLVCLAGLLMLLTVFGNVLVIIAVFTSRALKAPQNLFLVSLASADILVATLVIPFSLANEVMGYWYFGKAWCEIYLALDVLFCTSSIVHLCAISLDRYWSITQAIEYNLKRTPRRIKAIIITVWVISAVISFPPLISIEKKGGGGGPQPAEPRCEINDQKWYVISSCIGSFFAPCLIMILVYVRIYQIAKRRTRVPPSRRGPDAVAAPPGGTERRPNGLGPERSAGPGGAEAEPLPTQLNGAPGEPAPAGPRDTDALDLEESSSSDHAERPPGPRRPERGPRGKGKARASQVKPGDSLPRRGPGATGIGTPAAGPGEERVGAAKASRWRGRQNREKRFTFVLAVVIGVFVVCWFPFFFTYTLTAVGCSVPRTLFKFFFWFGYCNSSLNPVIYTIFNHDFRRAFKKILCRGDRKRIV
It is filed as functional, cell-based.
Note: assay procedure not described here.

Chain of Gamma-aminobutyric acid receptor subunit alpha-1 (P62813 whole entry): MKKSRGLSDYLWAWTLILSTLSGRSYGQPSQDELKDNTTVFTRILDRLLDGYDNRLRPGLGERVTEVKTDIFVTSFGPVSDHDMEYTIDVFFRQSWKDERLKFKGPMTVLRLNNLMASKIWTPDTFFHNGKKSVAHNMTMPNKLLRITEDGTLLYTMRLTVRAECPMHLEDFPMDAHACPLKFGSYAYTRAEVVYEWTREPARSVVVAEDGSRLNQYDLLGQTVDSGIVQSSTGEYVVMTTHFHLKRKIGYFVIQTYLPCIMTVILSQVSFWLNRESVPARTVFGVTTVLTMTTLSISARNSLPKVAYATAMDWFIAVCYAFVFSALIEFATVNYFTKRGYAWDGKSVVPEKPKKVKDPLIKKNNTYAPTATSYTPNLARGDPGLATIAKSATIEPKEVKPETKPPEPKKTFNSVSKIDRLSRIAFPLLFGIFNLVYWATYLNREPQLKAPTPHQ
Chain of Motilin receptor (O43193 whole entry): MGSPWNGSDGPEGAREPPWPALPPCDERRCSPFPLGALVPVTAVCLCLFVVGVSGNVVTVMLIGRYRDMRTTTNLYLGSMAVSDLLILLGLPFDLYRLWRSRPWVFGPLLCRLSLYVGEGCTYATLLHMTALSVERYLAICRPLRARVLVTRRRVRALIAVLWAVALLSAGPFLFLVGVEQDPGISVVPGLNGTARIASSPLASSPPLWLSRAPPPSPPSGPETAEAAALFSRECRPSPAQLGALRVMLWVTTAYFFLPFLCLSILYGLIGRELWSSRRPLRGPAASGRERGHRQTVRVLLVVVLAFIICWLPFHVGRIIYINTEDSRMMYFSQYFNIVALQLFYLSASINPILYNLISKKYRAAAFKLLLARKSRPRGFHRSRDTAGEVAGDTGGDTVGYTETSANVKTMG
Chain of Kappa-type opioid receptor (P41145 whole entry): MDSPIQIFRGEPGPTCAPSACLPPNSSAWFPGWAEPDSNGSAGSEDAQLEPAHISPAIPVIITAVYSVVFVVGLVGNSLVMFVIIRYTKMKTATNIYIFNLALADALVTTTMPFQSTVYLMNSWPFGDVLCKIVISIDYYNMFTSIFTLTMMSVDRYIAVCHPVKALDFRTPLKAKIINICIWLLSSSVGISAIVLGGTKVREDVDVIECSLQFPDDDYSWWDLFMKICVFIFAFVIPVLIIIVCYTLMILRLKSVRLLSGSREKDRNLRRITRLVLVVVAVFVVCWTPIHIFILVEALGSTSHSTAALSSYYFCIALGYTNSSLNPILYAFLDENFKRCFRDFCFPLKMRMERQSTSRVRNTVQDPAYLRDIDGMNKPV
Chain of Voltage-gated inwardly rectifying potassium channel KCNH2 (Q12809 whole entry): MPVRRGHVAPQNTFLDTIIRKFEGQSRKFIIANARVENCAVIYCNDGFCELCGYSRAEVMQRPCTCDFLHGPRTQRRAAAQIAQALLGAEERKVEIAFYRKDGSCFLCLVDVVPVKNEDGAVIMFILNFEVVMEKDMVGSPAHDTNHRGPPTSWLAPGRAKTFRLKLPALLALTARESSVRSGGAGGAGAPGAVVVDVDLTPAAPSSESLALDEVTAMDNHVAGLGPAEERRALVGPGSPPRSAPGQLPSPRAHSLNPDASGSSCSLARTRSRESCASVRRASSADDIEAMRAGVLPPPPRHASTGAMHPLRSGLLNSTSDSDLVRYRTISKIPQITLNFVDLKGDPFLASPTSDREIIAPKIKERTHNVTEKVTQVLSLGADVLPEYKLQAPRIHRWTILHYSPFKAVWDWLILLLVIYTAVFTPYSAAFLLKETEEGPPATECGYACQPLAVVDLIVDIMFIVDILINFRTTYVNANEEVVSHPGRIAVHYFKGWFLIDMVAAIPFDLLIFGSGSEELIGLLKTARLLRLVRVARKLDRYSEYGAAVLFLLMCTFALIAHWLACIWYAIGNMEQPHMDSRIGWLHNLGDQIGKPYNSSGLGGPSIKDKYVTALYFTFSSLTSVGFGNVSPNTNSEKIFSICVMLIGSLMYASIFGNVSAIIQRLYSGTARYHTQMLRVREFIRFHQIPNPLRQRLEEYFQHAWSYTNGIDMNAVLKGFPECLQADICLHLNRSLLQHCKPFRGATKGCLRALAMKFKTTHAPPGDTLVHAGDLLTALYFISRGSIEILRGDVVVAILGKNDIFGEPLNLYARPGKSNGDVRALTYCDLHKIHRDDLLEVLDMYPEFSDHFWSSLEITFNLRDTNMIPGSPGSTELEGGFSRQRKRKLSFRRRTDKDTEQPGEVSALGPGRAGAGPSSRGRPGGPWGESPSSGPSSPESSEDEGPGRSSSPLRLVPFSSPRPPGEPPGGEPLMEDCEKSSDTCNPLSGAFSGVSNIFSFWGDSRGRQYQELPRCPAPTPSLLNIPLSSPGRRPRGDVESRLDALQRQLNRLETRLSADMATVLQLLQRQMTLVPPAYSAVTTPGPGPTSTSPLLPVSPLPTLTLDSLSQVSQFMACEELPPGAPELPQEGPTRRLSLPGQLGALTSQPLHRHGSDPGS

Regarding `CC(C)C(=O)OCC(=O)[C@@]12O[C@H](C3CCCCC3)O[C@@H]1C[C@H]1[C@@H]3CCC4=CC(=O)C=C[C@]4(C)[C@H]3[C@@H](O)C[C@@]12C` [CICLESONIDE], the AC50 was greater than 30 µM in test [1]; greater than 30 µM in [2]; greater than 10 µM on Motilin receptor; greater than 30 µM in [3]; greater than 30 µM in test [4]; 9.72 µM in test [5]. Besides, the AC50 at Adenosine receptor A3 is 4.2 µM; in test [6] it was greater than 10 µM; in [7] it was greater than 10 µM; in [8], greater than 10 µM.

Turning to `CC(C)(Oc1ccc(C2CC2(Cl)Cl)cc1)C(=O)O` (stereo not given) [CIPROFIBRATE], the AC50 (in test [1]; in test [2]; at Motilin receptor; in test [3]; in [4]; in test [5]) was greater than 30 µM in each case. The half-maximal activity concentration (AC50) (on Adenosine receptor A3; in test [6]; in test [7]; in test [8]) was greater than 30 µM in each case.

For the compound `Cc1c(O)c(=O)ccn1C` [DEFERIPRONE], the AC50 (in test [1]; in test [2]; at Motilin receptor; in test [3]; in test [4]; in test [5]) was greater than 30 µM in each case. The AC50 (on Adenosine receptor A3; in test [6]; in test [7]; in [8]) was greater than 30 µM in each case.

Take `CCCCOc1cc(C(=O)NCCN(CC)CC)c2ccccc2n1` [DIBUCAINE]: the AC50 was greater than 30 µM in [1]; greater than 30 µM in test [2]; greater than 30 µM at Motilin receptor; greater than 30 µM in [3]; 1.42 µM in test [4]; 7.36 µM in test [5]. The AC50 at Adenosine receptor A3 is greater than 30 µM; in [6] it was greater than 30 µM; in [7], greater than 10 µM; in [8] it was greater than 10 µM.

For the compound `O=C1CN=C(c2ccccc2)c2cc(Cl)ccc2N1CC(F)(F)F` [HALAZEPAM], the AC50 in test [1] was greater than 30 µM; in test [2], greater than 30 µM; on Motilin receptor, greater than 30 µM; in test [3], greater than 30 µM; in test [4], greater than 30 µM; in test [5], 20 µM. Further, the AC50 at Adenosine receptor A3 is 26 µM; in test [6], 0.506 µM; in test [7] it was greater than 30 µM; in test [8], greater than 30 µM.

With `CCCCCN(C)CCC(O)(P(=O)(O)O)P(=O)(O)O` [IBANDRONIC ACID], the AC50 (in [1]; in test [2]; at Motilin receptor; in test [3]; in [4]; in test [5]) was greater than 30 µM throughout. The AC50 on Adenosine receptor A3 was greater than 30 µM; in test [6], greater than 30 µM; in [7], greater than 10 µM; in [8] it was greater than 30 µM.

Regarding `C1=Cc2cccc(OCC3CNCCO3)c2C1` (stereo not given) [INDELOXAZINE], the AC50 in [1] was greater than 30 µM; in test [2] it was 25 µM; at Motilin receptor it was greater than 30 µM; in [3], greater than 30 µM; in test [4] it was greater than 30 µM; in test [5], 25 µM. In addition, the AC50 (at Adenosine receptor A3; in test [6]; in test [7]; in test [8]) was greater than 30 µM in each case.

With `COC(=O)C1=C(C)NC(C)=C(C(=O)OC(C)C)C1c1cccc2nonc12` (stereo not given) [ISRADIPINE], the AC50 in test [1] was greater than 30 µM; in test [2], greater than 30 µM; on Motilin receptor, 14.7 µM; in [3], greater than 30 µM; in test [4] it was greater than 30 µM; in [5], 10.7 µM. The AC50 was 20.3 µM at Adenosine receptor A3, greater than 10 µM in test [6], greater than 10 µM in test [7] and greater than 10 µM in test [8].

The AC50 is the midpoint of the concentration-response curve, whichever way the signal moves.
